The values that follow come from patent US6348309B1, “Process for inactivating viruses in blood and blood products” (priority 1989, dated 2002).

One series concerns adenovirus. In words: Photodynamic treatment of adenovirus with pre-incubation in the dark, titrated on FL cells (Example 7). The format is cell-based. As to conditions: TB instead of MB, same conditions.
Series [1] concerns Eastern equine encephalomyelitis (EEE) virus. As to conditions: cited from earlier work.
The conditions of series [2]: 1 to 2 mg/kg of body weight; cited from earlier work.

Structures are written as SMILES. “Also recorded” adds a separate entry of the source.

Consider `Cc1cc2nc3ccc(N(C)C)cc3[s+]c2cc1N.[Cl-]` [TB, toluidine blue], for which, in the series with adenovirus, the “effect of photodynamic treatment on virus titer” value was “not reduced”. Moreover, the “inactivation of EEE virus in plasma” value in series [1] was “effectively inactivated; also recorded: failed to inactivate the virus completely”. The “side effects in therapeutic use” value in series [2] is on record as “without any significant side effects”.
